{"source": "patent US20120288604A1", "about": "“Organic Compounds” (Givaudan S.A., priority 2009, published 2012)", "key": {"[1]": {"details": "Tsuzuki et al, J. of chemical and engineering data (1971), 16(1), 108-11; cited from earlier work"}, "[2]": {"test_system": "panel of 15 subjects all of whom were sweet sensitive", "assay": "Comparative sensory ranking of sucrose solutions against 7% sucrose + para-ethoxy benzonitrile (R-index analysis)", "type": "in vivo", "protocol": "The test samples (“Test”) contained 7% sucrose and 20 ppm of para-ethoxy benzonitrile in water. The test samples were compared with control samples containing 7, 8, 9, and 10% sucrose in water. The sensory evaluations were conducted as follows. All samples were presented at ambient temperature in 15 ml aliquots at random to a panel of 15 subjects all of whom were sweet sensitive of varying sensitivity. After tasting each sample, the mouth was rinsed thoroughly with water at ambient temperature prior to tasting the next sample. The tastings were carried out in two replications in one session. Panelists were asked to rank the solutions whilst wearing nose plugs. They were asked to rank from least sweet to most sweet.\n(§1) The data were subjected to an R-Index analysis. […] An R-index from 50% to the critical value means the sweetness enhancer sample has an equivalent sweetness to the compared sucrose sample."}, "[3]": {"test_system": "panel of 15 subjects all of whom were sweet sensitive", "assay": "Sensory ranking to find the sucrose concentration iso-intense to aqueous para-ethoxy benzonitrile (R-index analysis)", "type": "in vivo", "protocol": "The test samples contained para-ethoxy benzonitrile in water. The control samples were aqueous solutions of sucrose at 0.5%, 1.0%, 1.5% and 2.0%. The sensory evaluations were conducted as follows. All samples were presented at ambient temperature in 15 ml aliquots at random to a panel of 15 subjects all of whom were sweet sensitive of varying sensitivity. After tasting each sample, panelists rinsed their mouths thoroughly with water at ambient temperature prior to tasting subsequent samples. The tastings were carried out in two replications in one session. Panelists were asked to rank the solutions whilst wearing nose plugs. They were asked to rank from least sweet to most sweet.\nas §1"}}}
{"compound": "CCOc1ccc(C#N)cc1", "note": "[ethoxy benzonitrile]", "values": [{"measurement": "taste as described", "setting": "[1]", "value": "sweet or sweetish"}]}
{"compound": "CCOc1ccc(C#N)cc1", "note": "[para-ethoxy benzonitrile]", "values": [{"measurement": "sweetness enhancement (additive or synergistic)", "setting": "[2]; 20 ppm in 7% sucrose, Examples 1 and 2 taken together", "value": "synergistic effect"}, {"measurement": "iso-sweet sucrose, by interpolation", "setting": "[2]; Test (7% sucrose + 20 ppm in water)", "value": 8.5, "unit": "%"}, {"measurement": "Significantly different (p < 0.05)", "setting": "[2]; Test (7% sucrose + 20 ppm in water) vs. 7% sucrose", "value": "Yes"}, {"measurement": "R-index", "setting": "[2]; Test (7% sucrose + 20 ppm in water) vs. 7% sucrose, critical value 64.61%", "value": 95, "unit": "%"}, {"measurement": "Significantly different (p < 0.05)", "setting": "[2]; Test (7% sucrose + 20 ppm in water) vs. 8% sucrose", "value": "Yes"}, {"measurement": "R-index", "setting": "[2]; Test (7% sucrose + 20 ppm in water) vs. 8% sucrose, critical value 64.61%", "value": 73, "unit": "%"}, {"measurement": "Significantly different (p < 0.05)", "setting": "[2]; Test (7% sucrose + 20 ppm in water) vs. 9% sucrose", "value": "Yes"}, {"measurement": "R-index", "setting": "[2]; Test (7% sucrose + 20 ppm in water) vs. 9% sucrose, critical value 35.39%", "value": 28, "unit": "%"}, {"measurement": "Significantly different (p < 0.05)", "setting": "[2]; Test (7% sucrose + 20 ppm in water) vs. 10% sucrose", "value": "Yes"}, {"measurement": "R-index", "setting": "[2]; Test (7% sucrose + 20 ppm in water) vs. 10% sucrose, critical value 35.39%", "value": 10, "unit": "%"}, {"measurement": "iso-sweet sucrose expected were the effect merely additive", "setting": "[2]; Test (7% sucrose + 20 ppm in water), from the data of Example 1", "value": 7.75, "unit": "%"}, {"measurement": "perceived sweetness relative to sucrose", "setting": "[2]; Test (7% sucrose + 20 ppm) vs. 7 and 8% sucrose solutions", "value": "significantly sweeter"}, {"measurement": "perceived sweetness relative to sucrose", "setting": "[2]; Test (7% sucrose + 20 ppm) vs. 9% and 10% sucrose", "value": "less sweet"}, {"measurement": "Significantly different (p < 0.05)", "setting": "[3]; 10 ppm in water vs. 0.5% sucrose", "value": "No"}, {"measurement": "R-index", "setting": "[3]; 10 ppm in water vs. 0.5% sucrose, critical value 64.61%", "value": 51, "unit": "%"}, {"measurement": "iso sweet sucrose solution", "setting": "[3]; 10 ppm solution in water", "value": 0.5, "unit": "%"}, {"measurement": "Significantly different (p < 0.05)", "setting": "[3]; 20 ppm in water vs. 0.5% sucrose", "value": "Yes"}, {"measurement": "R-index", "setting": "[3]; 20 ppm in water vs. 0.5% sucrose, critical value 64.61%", "value": 81, "unit": "%"}, {"measurement": "Significantly different (p < 0.05)", "setting": "[3]; 20 ppm in water vs. 1.0% sucrose", "value": "Yes"}, {"measurement": "R-index", "setting": "[3]; 20 ppm in water vs. 1.0% sucrose, critical value 35.39%", "value": 30, "unit": "%"}, {"measurement": "iso-sweet sucrose solution, by interpolation", "setting": "[3]; 20 ppm solution in water", "value": 0.75, "unit": "%"}, {"measurement": "perceived sweetness relative to sucrose", "setting": "[3]; 20 ppm solution vs. 0.5% sucrose", "value": "significantly sweeter"}, {"measurement": "perceived sweetness relative to sucrose", "setting": "[3]; 20 ppm solution vs. 1% sucrose", "value": "significantly less sweet"}]}
